Like-named read-outs stand apart in the source and are kept apart here.
Tests used:
[1] = mouse, in vivo; for % dosage, Urine: iv
Description: Groups of four mice were individually injected in the tail vein with 20 μM/Kg of body weight (10-20 μCi) of Gd-153 labeled DTPA-bis (2,6-dimethylaniline). Each group of mice was sacrificed at intervals of 1,3 and 24 hours. The blood was collected from the heart just before the animals were sacrificed and the animals were dissected and individual organs were assayed.

[2] = rat, in vivo, 0 min
[3] = in vivo; cited from earlier work
[4] = Osmotic pressure of Gd-DTPA bis pyridoxylamine solution; format: physicochemical; conditions: 0.144 moles/liter solution; pH 7.08
Description: 0.50 g of the DTPA-bis pyridoxylamine synthesized in Example 4 was reacted with 0.15 g of Gd(OH)3 and 3.6 ml of water. The pH of the mixture was adjusted to 7.51 with sodium hydroxide. The mixture was then heated in an oil bath at a temperature of about 90° C. for about 45 minutes. The mixture was cooled and the pH adjusted to 7.08 with sodium hydroxide. 5.0 ml of the product was recovered. The concentration of the resulting Gd-DTPA bis pyridoxylamine was determined to be 0.144 moles/liter with an osmotic pressure of 646 m Os moles/liter.

[5] = MRI; cited from earlier work
[6] = cited from earlier work

With `Cc1cccc(C)c1NC(=O)CN(CCN(CCN(CC(=O)[O-])CC(=O)Nc1c(C)cccc1C)CC(=O)[O-])CC(=O)[O-].[153Gd+3]` [Gadolinium III chelate of DTPA-bis (2,6-dimethylaniline)] the “% dosage, Blood” value ([1]; 60 min) was “.4441 % DOSAGE”, the “% dosage, Bone” value ([1]; 60 min) was “.1489 % DOSAGE” and the “% dosage, Large Intestine” value ([1]; 60 min) was “.0781 % DOSAGE”. The “% dosage, Left Kidney” value ([1]; 60 min) was “.7115 % DOSAGE”, the “% dosage, Liver” value ([1]; 60 min) was 22.95 % DOSAGE and the “% dosage, Lungs” value ([1]; 60 min) was “.0326 % DOSAGE”. For the same compound, the “% dosage, Muscle” value ([1]; 60 min) was “.6207 % DOSAGE”, the “% dosage, Right Kidney” value ([1]; 60 min) was “.6676 % DOSAGE” and the “% dosage, Small Intestine” value ([1]; 60 min) was 36.08 % DOSAGE. For the same compound, the “% dosage, Spleen” value ([1]; 60 min) was “.0214 % DOSAGE”, the “% dosage, Stomach” value ([1]; 60 min) was “.2113 % DOSAGE” and the “% dosage, Blood” value ([1]; 180 min) was “.0188 % DOSAGE”. For the same compound, the “% dosage, Bone” value ([1]; 180 min) was “.0678 % DOSAGE”, the “% dosage, Large Intestine” value ([1]; 180 min) was 1.471 % DOSAGE and the “% dosage, Left Kidney” value ([1]; 180 min) was “.4528 % DOSAGE”. For the same compound, the “% dosage, Liver” value ([1]; 180 min) was 2.805 % DOSAGE, the “% dosage, Lungs” value ([1]; 180 min) was “.0075 % DOSAGE” and the “% dosage, Muscle” value ([1]; 180 min) was “.6183 % DOSAGE”. The “% dosage, Right Kidney” value ([1]; 180 min) was “.5235 % DOSAGE”, the “% dosage, Small Intestine” value ([1]; 180 min) was 52.10 % DOSAGE and the “% dosage, Spleen” value ([1]; 180 min) was “.0096 % DOSAGE”. The “% dosage, Stomach” value ([1]; 180 min) was “.1254 % DOSAGE”, the “% dosage, Blood” value ([1]; 1440 min) was “.0038 % DOSAGE” and the “% dosage, Bone” value ([1]; 1440 min) was “.1551 % DOSAGE”. For the same compound, the “% dosage, Large Intestine” value ([1]; 1440 min) was “.5091 % DOSAGE”, the “% dosage, Left Kidney” value ([1]; 1440 min) was “.1050 % DOSAGE” and the “% dosage, Liver” value ([1]; 1440 min) was 1.659 % DOSAGE. For the same compound, the “% dosage, Lungs” value ([1]; 1440 min) was “.0085 % DOSAGE”, the “% dosage, Muscle” value ([1]; 1440 min) was “.0861 % DOSAGE” and the “% dosage, Right Kidney” value ([1]; 1440 min) was “.1102 % DOSAGE”. For the same compound, the “% dosage, Small Intestine” value ([1]; 1440 min) was “.1533 % DOSAGE”, the “% dosage, Spleen” value ([1]; 1440 min) was “.0042 % DOSAGE” and the “% dosage, Stomach” value ([1]; 1440 min) was “.0468 % DOSAGE”. For the same compound, the “% dosage, Urine” value ([1]; 1 h) was 26.30 % DOSAGE, the “% dosage, Urine” value ([1]; 3 h) was 32.13 % DOSAGE and the “% Retained, whole body” value [2] was 100%.

For `O=C([O-])CN(CCN(CC(=O)[O-])CC(=O)[O-])CCN(CC(=O)[O-])C(COCc1ccccc1)C(=O)[O-].[Gd+3]` (stereo not drawn) [Gd-BOPTA, gadolinium-benzyloxyproprionyl tetracetate], the “liver concentration of injected dose” value [3] is given as 37%.

`Cc1ncc(CO)c(CNC(=O)CN(CCN(CCN(CC(=O)[O-])CC(=O)NCc2c(CO)cnc(C)c2O)CC(=O)[O-])CC(=O)[O-])c1O.[Gd+3]` [Gd-DTPA bis pyridoxylamine, Gadolinium III chelate of DTPA-bis pyridoxylamide] showed an osmotic pressure [4] of 646 m Os moles/liter.

In the case of `O=C([O-])CN(CCN(CC(=O)[O-])CC(=O)O)CCN(CC(=O)[O-])CC(=O)O.[Gd+3]` [Gd-DTPA, gadolinium-diethylene triamino pentaacetic acid], the “blood clearance and excretion” value [3] is given as “rapid clearance from the blood and subsequent prompt renal excretion”.

In the case of “gadolinium-hepatic iminodiacetic acid [Gd-HIDA]”, the “image enhancement of the gall bladder” value [5] is given as “failed to enhance the image of the gall bladder”, the “image enhancement of the liver” value [5] is given as “only faintly enhanced images of the liver” and the in vivo stability [6] is given as “unstable in vivo”.
